The text below walks through data of PubChem BioAssay AID624129 (Sanford-Burnham Center for Chemical Genomics, 2012).

Calls of active or inactive are those of the source. The rule behind the calls is not given here. Bounds are passed on as bounds.

Broadly, the IC50 is the concentration at which inhibition is half-maximal. A word on the inhibition: it is the relative decrease from the control value, in per cent.

Common to all, as to experiment: CXCR6 receptor antagonists, dose response, cell-based, beta-arrestin, DiscoveRx, APJ panel, uHTS hits (AID 624129)
Assay [1] concerns the target Apelin receptor (Homo sapiens) (UniProt P35414). Particulars: CXCR6 beta-arrestin (DiscoveRx) antagonist cell assay, APJ.
Assay [2] concerns the target Beta-galactosidase (Escherichia coli) (UniProt Q8VNN2). Particulars: CXCR6 beta-arrestin (DiscoveRx) antagonist cell assay, b-galactosidase.
Assay [3] concerns the target C-C chemokine receptor type 6 (Homo sapiens) (UniProt P51684). Particulars: CXCR6 beta-arrestin (DiscoveRx) antagonist cell assay.
Assay [4] has as its target C-X-C chemokine receptor type 6 (Homo sapiens) (UniProt O00574). Particulars: CXCR6 beta-arrestin (DiscoveRx) antagonist cell assay; for inhibition: CXCR6, run 1, dose range 2, at 80 µM (top of the series).
Where [5] appears, read: dose range 1, mean IC50 across replicates.
The mark [6] stands for this setting: CCR6, dose range 1, mean IC50 across replicates.
Setting [7] is: CXCR6, dose range 1, mean IC50 across replicates.

Chain of Beta-galactosidase (Escherichia coli) (Q8VNN2 whole entry, looked up): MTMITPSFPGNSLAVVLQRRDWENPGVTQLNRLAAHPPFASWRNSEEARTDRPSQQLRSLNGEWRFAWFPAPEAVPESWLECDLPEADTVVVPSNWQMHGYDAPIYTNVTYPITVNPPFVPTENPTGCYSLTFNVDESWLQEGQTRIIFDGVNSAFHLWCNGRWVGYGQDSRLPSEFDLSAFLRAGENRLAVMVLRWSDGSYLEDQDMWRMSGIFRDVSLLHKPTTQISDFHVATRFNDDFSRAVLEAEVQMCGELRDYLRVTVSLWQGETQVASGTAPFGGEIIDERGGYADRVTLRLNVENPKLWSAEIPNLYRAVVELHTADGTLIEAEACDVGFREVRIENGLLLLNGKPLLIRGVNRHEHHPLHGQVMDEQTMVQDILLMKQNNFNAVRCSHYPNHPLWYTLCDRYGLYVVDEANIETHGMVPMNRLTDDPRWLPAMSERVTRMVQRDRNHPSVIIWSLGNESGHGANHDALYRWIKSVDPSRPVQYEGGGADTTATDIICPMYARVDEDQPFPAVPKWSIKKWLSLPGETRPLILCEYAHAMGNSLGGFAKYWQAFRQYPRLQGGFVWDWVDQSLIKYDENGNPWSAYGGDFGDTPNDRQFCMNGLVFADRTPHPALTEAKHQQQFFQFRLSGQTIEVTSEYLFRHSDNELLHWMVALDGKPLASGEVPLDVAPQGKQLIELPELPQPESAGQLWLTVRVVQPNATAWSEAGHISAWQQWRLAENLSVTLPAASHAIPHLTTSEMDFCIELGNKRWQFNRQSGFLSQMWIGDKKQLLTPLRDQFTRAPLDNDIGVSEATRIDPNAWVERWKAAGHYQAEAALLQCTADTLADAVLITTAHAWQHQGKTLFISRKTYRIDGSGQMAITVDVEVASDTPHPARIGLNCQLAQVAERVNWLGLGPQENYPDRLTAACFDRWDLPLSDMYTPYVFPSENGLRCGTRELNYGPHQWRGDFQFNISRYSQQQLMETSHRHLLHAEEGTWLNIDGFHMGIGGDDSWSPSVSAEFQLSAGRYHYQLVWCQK
Chain of C-X-C chemokine receptor type 6 (Homo sapiens) (O00574 whole entry, looked up): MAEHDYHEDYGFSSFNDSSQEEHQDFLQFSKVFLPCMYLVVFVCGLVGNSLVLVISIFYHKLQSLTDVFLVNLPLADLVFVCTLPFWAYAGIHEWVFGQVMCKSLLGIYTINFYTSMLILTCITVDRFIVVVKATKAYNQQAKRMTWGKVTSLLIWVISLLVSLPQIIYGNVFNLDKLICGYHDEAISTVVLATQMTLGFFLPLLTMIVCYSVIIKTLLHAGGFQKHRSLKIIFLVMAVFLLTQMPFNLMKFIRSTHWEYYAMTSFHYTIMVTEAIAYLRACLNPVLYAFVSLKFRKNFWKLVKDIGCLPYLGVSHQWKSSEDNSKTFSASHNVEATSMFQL

For the compound `O=[N+]([O-])c1c(Nc2cccc(O)c2)cc(Cl)c2nonc12`, the IC50 in assay [1] (dose range 1) was 18 µM; in assay [1] (setting [5]), 19.1 µM; in assay [1] (run 2, dose range 1) it was 17 µM; in assay [1] (run 3, dose range 1), 22.2 µM; in assay [2] (dose range 1), > 80 µM (inactive); in assay [2] (setting [5]) it was over 80 µM. Moreover, the half-inhibitory concentration (IC50) in assay [3] (CCR6, dose range 1) is 12.2 µM; in assay [3] (setting [6]), 13.3 µM; in assay [3] (CCR6, run 2, dose range 1) it was 14.3 µM; in assay [4] (setting [7]) it was 13.8 µM; in assay [4] (CXCR6, run 2, dose range 1), 11.3 µM. Moreover, the IC50 result in assay [4] (CXCR6, dose range 1) is “inactive”. In addition, the inhibition in assay [4] turned out to be 113%.
With `O=C(OCn1ncc(Cl)c(Cl)c1=O)c1cccc(C(F)(F)F)c1`, the IC50 was 21.6 µM in assay [1] (dose range 1); 31.7 µM in assay [1] (setting [5]); 32.5 µM in assay [1] (run 2, dose range 1); 40.9 µM in assay [1] (run 3, dose range 1); > 80 µM (inactive) in assay [2] (dose range 1); over 80 µM in assay [2] (setting [5]). The half-maximal inhibitory concentration (IC50) in assay [3] (CCR6, dose range 1) was 14 µM; in assay [3] (setting [6]) it was 16.1 µM; in assay [3] (CCR6, run 2, dose range 1), 18.2 µM; in assay [4] (setting [7]), 23.5 µM; in assay [4] (CXCR6, run 2, dose range 1), 19 µM. Further, the IC50 result in assay [4] (CXCR6, dose range 1) was “inactive”. The inhibition in assay [4] worked out at 128%.
`CN(C(=O)CSC1=Nc2ccccc2C2=NC(c3ccccc3)C(=O)N12)C1CCCCC1` (stereo not given): the IC50 in assay [1] (setting [5]) was over 80 µM; in assay [1] (run 2, dose range 1), over 80 µM; in assay [1] (run 3, dose range 1), over 80 µM; in assay [2] (dose range 1) it was > 80 µM (inactive); in assay [2] (setting [5]), over 80 µM; in assay [3] (setting [6]) it was over 80 µM. Besides, the IC50 in assay [3] (CCR6, run 2, dose range 1) was over 80 µM; in assay [4] (CXCR6, dose range 1), > 80 µM (inactive); in assay [4] (setting [7]), over 80 µM; in assay [4] (CXCR6, run 2, dose range 1) it was over 80 µM. Besides, the inhibition in assay [4] is -15.6%.
Consider `CCOc1ccc2nc(NC(=O)c3ccccn3)sc2c1`, for which the half-inhibitory concentration (IC50) in assay [1] (dose range 1) was 11.7 µM; in assay [1] (setting [5]), 19.5 µM; in assay [1] (run 2, dose range 1), 35 µM; in assay [1] (run 3, dose range 1), 11.8 µM; in assay [2] (dose range 1) it was > 80 µM (inactive); in assay [2] (setting [5]), over 80 µM. Moreover, the IC50 was 7.32 µM in assay [3] (CCR6, dose range 1); 8.78 µM in assay [3] (setting [6]); 10.2 µM in assay [3] (CCR6, run 2, dose range 1); 13.5 µM in assay [4] (setting [7]); 12.7 µM in assay [4] (CXCR6, run 2, dose range 1). Also, the IC50 entry in assay [4] (CXCR6, dose range 1) was “inactive”. Besides, the inhibition in assay [4] was found to be 92.1%.
For `C=C(CN(C)C)C(=O)c1ccc(C)cc1C`, the half-maximal inhibitory concentration (IC50) in assay [1] (dose range 1) is 51.6 µM; in assay [1] (setting [5]), 39.5 µM; in assay [1] (run 2, dose range 1), 39.9 µM; in assay [1] (run 3, dose range 1) it was 27 µM; in assay [2] (dose range 1), 48.2 µM; in assay [2] (setting [5]), 48.2 µM. Further, the IC50 is 26 µM in assay [3] (CCR6, dose range 1); 29.1 µM in assay [3] (setting [6]); 32.3 µM in assay [3] (CCR6, run 2, dose range 1); 45.6 µM in assay [4] (setting [7]); 25.5 µM in assay [4] (CXCR6, run 2, dose range 1). Also, the IC50 result in assay [4] (CXCR6, dose range 1) was “inactive”. Besides, the inhibition in assay [4] came out at 90.5%.
On to `O=C(Nc1nnc(SCc2ccc(F)cc2)s1)c1ccccn1`, for which the IC50 in assay [1] (dose range 1) was 3.1 µM; in assay [1] (setting [5]) it was 3.6 µM; in assay [1] (run 2, dose range 1), 3.87 µM; in assay [1] (run 3, dose range 1) it was 3.84 µM; in assay [2] (dose range 1), > 80 µM (inactive); in assay [2] (setting [5]), over 80 µM. Further, the 50% inhibitory concentration (IC50) in assay [3] (CCR6, dose range 1) was 4.29 µM; in assay [3] (setting [6]), 4.53 µM; in assay [3] (CCR6, run 2, dose range 1), 4.78 µM; in assay [4] (setting [7]) it was 4.08 µM; in assay [4] (CXCR6, run 1, dose range 2), 5.5 µM; in assay [4] (CXCR6, run 2, dose range 1) it was 3.49 µM. Moreover, the IC50 in assay [4] (CXCR6, run 2, dose range 2) is 3.25 µM.
With `COc1ccc([N+](=O)[O-])c(S(=O)(=O)c2ccccc2)n1`, the concentration for half-maximal inhibition (IC50) was 21.5 µM in assay [1] (dose range 1); 22.9 µM in assay [1] (setting [5]); over 80 µM in assay [1] (run 2, dose range 1); 24.4 µM in assay [1] (run 3, dose range 1); 50.7 µM in assay [2] (setting [5]); 22.6 µM in assay [3] (CCR6, dose range 1). Moreover, the concentration for half-maximal inhibition (IC50) in assay [3] (setting [6]) was 19.5 µM; in assay [3] (CCR6, run 2, dose range 1), 16.5 µM; in assay [4] (setting [7]), 35.4 µM; in assay [4] (CXCR6, run 2, dose range 1), 24.9 µM. The IC50 entry in assay [2] (dose range 1) was “inactive”; in assay [4] (CXCR6, dose range 1), “inactive”. The inhibition in assay [4] came to 102%.
Regarding `COc1ccc(NC(=O)/C(Cl)=C(/Cl)S(=O)Cc2ccc(Cl)cc2)cn1` (stereo not given), the IC50 in assay [1] (setting [5]) is over 80 µM; in assay [1] (run 2, dose range 1), over 80 µM; in assay [1] (run 3, dose range 1), over 80 µM; in assay [2] (dose range 1), > 80 µM (inactive); in assay [2] (setting [5]), over 80 µM; in assay [3] (setting [6]), over 80 µM. For the same compound, the IC50 in assay [3] (CCR6, run 2, dose range 1) is over 80 µM; in assay [4] (CXCR6, dose range 1), > 80 µM (inactive); in assay [4] (setting [7]), over 80 µM; in assay [4] (CXCR6, run 2, dose range 1) it was over 80 µM. In addition, the inhibition in assay [4] was -36.2%.
